The values that follow come from patent publication US20230392153A1, “SUMO Targeting Morpholinos as both Enhancers of Anti-Cancer Effects of Chemotherapeutic Treatments and Preventative Agents Against the Establishment of Chemoresistance” (Board of Regents, The University of Texas System, priority 2022, published 2023).

{OctaGua} = octa-guanidine dendrimer (vivo-morpholino)

The test system of this data set is mature mRNA transcripts derived from the SUMO2 gene, S2V1 and S2V2. Description: qRT-PCR quantification of SUMO2 transcript variants (CNE100 ng) in A549 cells treated with vivo-morpholinos. The class given is cell-based, human. Particulars: 4 μM, 24 hours. As to the method: Made to order vivo-morpholinos are readily available and can be procured from Gene Tools, LLC (Philomath, OR) based on specified embodiments of this disclosure, and reconstituted at a final concentration of 400 μM using RNase & DNase-free milli-Q water. The reconstituted vivo-morpholinos were kept in solution at room temperature. To test the vivo-morpholinos, A549 cells were seeded in 6 well plates at a density of 0.5×10^6 cells per well in a final volume of 3 mL per well. The day after cell seeding, the vivo-morpholinos were diluted down to a final concentration of 4 μM and a final volume of 2 mL using 1× Opti-MEM™ I (Thermo Fisher Scientific, Waltham, MA), the plating media was discarded using vacuum suction, and the diluted vivo-morpholinos were immediately added to the cells (2 mL per well). The cells were maintained in the presence of the vivo-morpholinos at 37° C. and 5% CO 2 for another 24 hours and subsequently the cells were collected and processed for RNA isolation. […] RNA quantification was performed using a NanoDrop™ One s Microvolume UV-Vis Spectrophotometer (Thermo Fisher Scientific). Upon quantification, the purified RNA was divided into 9 μL aliquots and stored at −80° C. until used for qRT-PCR. […]
CNE100 ng were calculated using the Cq values obtained in the qRT-PCR reactions indicated above and calibration curves generated using purified RNA produced in vitro corresponding to each of the segments targeted by the primer sets indicated above.
The primer sets used to quantify each of the SUMO2 mature mRNA transcripts are indicated below. […]
The experiments described above were performed four different times. […] In the three subsequent independent experiments, all samples were analyzed in triplicate and the averages were calculated. […]
Referring to FIG. 5, quantitative analysis of the SUMO2 transcript variants present in A549 cells under normal conditions as well as upon a 24 hour treatment with the vivo-morpholinos S2E3Acc and S2E3Don is presented. […]
(In general: Quantitative PCR measures a nucleic acid by following its amplification.)

For the substance “S2E3Acc: Vivo-morpholino, SEQ ID NO: 3, 5′ CCTCATTGACAATCCCTGAACGAGA 3′; targets SUMO2 exon 3 at the splicing acceptor site (CCUCAUUGACAAUCCCUGAACGAGA; all phosphorodiamidate morpholino (PMO), 3' {OctaGua}, T or U not given here)”, the “effect on the proportion of S2V1:S2V2 present in the cell” value was “significative changes”. The “decrease in the CNE100 ng of S2V1” value (versus normal conditions (untreated)) is roughly 10 fold.

For the substance “S2E3Don: Vivo-morpholino, SEQ ID NO: 4, 5′ GAGATTTTTTTACCTGTGCAGGTGT 3′; targets SUMO2 exon 3 at the splicing donor site (antisense GAGAUUUUUUUACCUGUGCAGGUGU; all phosphorodiamidate morpholino (PMO), 3' {OctaGua}, T or U not given here)”, the “effect on the proportion of S2V1:S2V2 present in the cell” value is reported as “significative changes”.
